In series [1] the test system is Staphylococcus aureus 209 P JC-1. Put plainly: Minimum Inhibitory Concentration (MIC), antibacterial spectrum in vitro. Format: cell-based.
The subject of series [2] is Streptococcus faecalis ATCC 8043. The description is as above. To be noted: Enterococcus faecalis. It is filed as cell-based.
Series [3] relates to Esherichia coli NIHJ JC-2. Described as above. Format: cell-based.
The test system of another series is Esherichia coli TEM DC-2. The series is described as above. It is filed as cell-based. The note with it: read-out: Minimum Inhibitory Concentration (MIC).
The test system of another series is Enterobacter cloacae P99. Described as above. It is filed as cell-based. The note with it: P99, read-out: Minimum Inhibitory Concentration (MIC).
Series [4] deals with Klebsiella pneumoniae PCI 602. The description is as above. It is filed as cell-based.
Series [5] concerns Salmonella typhimurium LT-2. Described as above. Format: cell-based. To be noted: Salmonella enterica, read-out: Minimum Inhibitory Concentration (MIC).
The subject of another series is Proteus morganii 1510. The series is described as above. It is filed as cell-based.
In series [6] the test system is Citrobacter freundii GN-346. The series is described as above. It is filed as cell-based.
The subject of series [7] is Pseudomonas aeruginosa MB-3833. The series is described as above. It is filed as cell-based.
Series [8] concerns Pseudomonas aeruginosa E-2. Described as above. Format: cell-based.
Series [9] has as its system Pseudomonas aeruginosa RPL-11. The series is described as above. It is filed as cell-based.
Series [10] in a line: Concentration in Blood Serum after subcutaneous dosing (bioassay using Escherichia coli). It is filed as in vivo. To be noted: mouse, sc, 25 mg/Kg subcutaneously, mice; for concentration at 0.5 h: 1/2 hour; for concentration at 0.25 h: 1/4 hour; for concentration at 5 min: 1/12 hour. The procedure: The concentration of the compound in the serum was determined by bioassay using Escherichia coli as assay microorganism.

Series [11] has as its system Staphylococus aureus (Smith I). Put plainly: Efficacy in Mice Infected with Staphylococus aureus (Smith I). To be noted: Staphylococcus aureus, sc, 168 h, St. aureus (Smith I) intraperitoneal infection, single subcutaneous dose one hour after infection, 7 days. Format: in vivo. An excerpt: (§1) A systemic infection was produced by intraperitoneal injection of the appropriate pathogen to mice (five male mice in each group, average body weight 20 g), and the mice were received single subcutaneous dose of the compound one hour after the infection.

The test system of series [12] is Pseudomonas aeruginosa (GN 10362). Put plainly: Efficacy in Mice Infected with Pseudomonas aeruginosa (GN 10362). Format: in vivo. The note with it: GN10362, sc, 168 h.
From the text: as §1

The test system of the next series is Pseudomonas aeruginosa. Nature of the series: Antibacterial activity against Pseudomonas aeruginosa (from Table 1). The note with it: in words. Format: cell-based.
Where [13] appears, read: 209PJC1, Staphylococcus aureus 209 P JC-1, read-out: Minimum Inhibitory Concentration (MIC).
Where [14] appears, read: ATCC8043, Streptococcus faecalis ATCC 8043, read-out: Minimum Inhibitory Concentration (MIC).
The mark [15] stands for this setting: PCI602, Klebsiella pneumoniae PCI 602, read-out: Minimum Inhibitory Concentration (MIC).
[16] abbreviates: Morganella morganii, Proteus morganii 1510, read-out: Minimum Inhibitory Concentration (MIC).
Where [17] appears, read: GN346, Citrobacter freundii GN-346, read-out: Minimum Inhibitory Concentration (MIC).
[18] abbreviates: MB3833, Pseudomonas aeruginosa MB-3833, read-out: Minimum Inhibitory Concentration (MIC).
Setting [19] is: E2, Pseudomonas aeruginosa E-2, read-out: Minimum Inhibitory Concentration (MIC).
Setting [20] is: RPL11, Pseudomonas aeruginosa RPL-11, read-out: Minimum Inhibitory Concentration (MIC).
Setting [21] is: Ps. aeruginosa (GN 10362) intraperitoneal infection, mice, single subcutaneous dose one hour after infection, 7 days, read-out: ED 50.

In brackets after ≈: the same amount, converted by molar mass. Counter-ions that a name gives are not always drawn. Like-named read-outs stand apart in the source and are kept apart here. Where only a bound is given, the exact number is not on record here.

Consider `C[n+]1ccc(SCC2=C(C(=O)[O-])N3C(=O)C(NC(=O)C(=NOC(C)(C)C(=O)O)c4csc(N)n4)C3OC2)cc1` [Compound 14, (6R,7R)-7-((Z)-2-(2-Aminothiazole-4-yl)-2-(2-carboxyprop-2-oxyimino)acetamide-3-(1-methylpyridinium-4-yl-thiomethyl)-1-oxa-1-dethiaceph-3-em-4-carboxylate (Sodium Salt)], for which the MIC in series [1] (setting [13]) was 1.56 µg/mL; in series [2] (setting [14]), above 100 µg/mL; in [3], 0.1 µg/mL; with Esherichia coli TEM DC-2 it was 0.25 µg/mL; in the series on Enterobacter cloacae P99, 128 µg/mL; in series [4] (setting [15]), 0.1 µg/mL. In addition, the MIC in series [5] (Salmonella typhimurium LT-2) was below 0.025 µg/mL; in the series on Proteus morganii 1510 (setting [16]), 3.13 µg/mL; in series [6] (setting [17]) it was 50 µg/mL; in series [7] (setting [18]) it was 1.56 µg/mL; in series [8] (setting [19]) it was 1.56 µg/mL; in series [9] (setting [20]), 64 µg/mL. For the same compound, the concentration at 0.5 h in [10] came out at 8800 ng/mL. The compound further displayed a concentration at 0.25 h in [10] of 11500 ng/mL. The compound also yielded a concentration at 5 min in series [10] of 18000 ng/mL. This compound had a concentration at 1 h in [10] of 5000 ng/mL. Besides, the ED50 stood at 0.016 mg/kg in series [11] and 0.13 mg/kg in [12] (setting [21]). For the same compound, in the series on Pseudomonas aeruginosa, the “effectiveness against Pseudomonas aeruginosa” value is recorded as “effective against Pseudomonas aeruginosa”.
Consider `CO[C@@]1(NC(=O)C(C(=O)O)c2ccc(O)cc2)C(=O)N2C(C(=O)O)=C(CSc3nnnn3C)CO[C@@H]21` (stereo partly drawn) [Latamoxef, reference compound], for which the MIC in [1] (setting [13]) stood at 3.13 µg/mL (≈ 6.01 µM); in series [2] (setting [14]), 25 µg/mL (≈ 48 µM); in series [3], 0.1 µg/mL (≈ 0.192 µM); in series [4] (setting [15]), 0.2 µg/mL (≈ 0.384 µM); in [5] (Salmonella typhimurium LT-2), 0.05 µg/mL (≈ 0.0961 µM); with Proteus morganii 1510 (setting [16]), 0.2 µg/mL (≈ 0.384 µM). Also, the MIC worked out at 1.56 µg/mL (≈ 3 µM) in [6] (setting [17]), 6.25 µg/mL (≈ 12 µM) in series [7] (setting [18]) and 6.25 µg/mL (≈ 12 µM) in series [8] (setting [19]). The figures for the ED50 in series [11] and in series [12] (setting [21]) were 0.67 mg/kg and 2.9 mg/kg, respectively.
On to `CC1OC2C(NC(=O)C(=NOC(C)(C)C(=O)O)c3csc(N)n3)C(=O)N2C(C(=O)[O-])=C1CSc1cc[n+](C)cc1` [Compound 1, (6R,7R)-7-((Z)-2-(2-Aminothiazole-4-yl)-2-(2-carboxyprop-2-oxyimino)acetamide)-(2S)-2-methyl-3-(1-methyl-pyridinium-4-ylthiomethyl)-1-oxa-1-oxa-1-dethiaceph-3-em-4-carboxylate (Sodium Salt)], for which the MIC came out at 1.56 µg/mL in series [1] (setting [13]); 50 µg/mL in [2] (setting [14]); 0.2 µg/mL in series [3]; 0.5 µg/mL with Esherichia coli TEM DC-2; 1 µg/mL in the series on Enterobacter cloacae P99; 0.2 µg/mL in series [4] (setting [15]). The MIC in series [5] (Salmonella typhimurium LT-2) is 0.05 µg/mL; with Proteus morganii 1510 (setting [16]), 0.39 µg/mL; in [6] (setting [17]), 0.78 µg/mL; in [7] (setting [18]), 3.13 µg/mL; in [8] (setting [19]), 3.13 µg/mL; in series [9] (setting [20]), 4 µg/mL. In series [10], this compound displayed a concentration at 0.5 h of 10600 ng/mL. This compound also returned a concentration at 0.25 h in series [10] of 18500 ng/mL. This compound yielded a concentration at 5 min in [10] of 14500 ng/mL. Besides, the concentration at 1 h in series [10] is 2200 ng/mL. Also, the ED50 in series [11] is 0.028 mg/kg; in [12] (setting [21]), 0.16 mg/kg. Besides, the “effectiveness against Pseudomonas aeruginosa” value in the series on Pseudomonas aeruginosa is reported as “effective against Pseudomonas aeruginosa”.
Consider `CC(C)(O/N=C(\C(=O)N[C@@H]1C(=O)N2C(C(=O)[O-])=C(C[n+]3ccccc3)CS[C@H]12)c1csc(N)n1)C(=O)O` [Ceftazidime, reference compound], for which the MIC in [1] (Staphylococcus aureus, 209PJC1, read-out: Minimum Inhibitory Concentration (MIC)) is 1.56 µg/mL (≈ 2.85 µM); in series [2] (ATCC8043, read-out: Minimum Inhibitory Concentration (MIC)) it was 50 µg/mL (≈ 91.5 µM); in series [3] it was 0.1 µg/mL (≈ 0.183 µM); in the series with Esherichia coli TEM DC-2, 0.5 µg/mL (≈ 0.915 µM); with Enterobacter cloacae P99, 64 µg/mL (≈ 117 µM); in series [4] (Klebsiella pneumoniae, PCI602, read-out: Minimum Inhibitory Concentration (MIC)) it was 0.1 µg/mL (≈ 0.183 µM). Further, the MIC in [5] (TYPHIMURIUM) stood at 0.05 µg/mL (≈ 0.0915 µM); with Proteus morganii 1510 (Morganella morganii, 1510, read-out: Minimum Inhibitory Concentration (MIC)), 12.5 µg/mL (≈ 22.9 µM); in [6] (Citrobacter freundii, GN346, read-out: Minimum Inhibitory Concentration (MIC)), 25 µg/mL (≈ 45.7 µM); in series [7] (Pseudomonas aeruginosa, MB3833, read-out: Minimum Inhibitory Concentration (MIC)) it was 0.78 µg/mL (≈ 1.43 µM); in series [8] (Pseudomonas aeruginosa, E2, read-out: Minimum Inhibitory Concentration (MIC)), 0.78 µg/mL (≈ 1.43 µM); in series [9] (Pseudomonas aeruginosa, RPL11, read-out: Minimum Inhibitory Concentration (MIC)) it was 3 µg/mL (≈ 5.49 µM). The compound also displayed a concentration at 0.5 h in [10] of 11500 ng/mL. In series [10], the concentration at 0.25 h was determined as 20000 ng/mL. For the same compound, the concentration at 5 min in series [10] came out at 13000 ng/mL. The compound further had a concentration at 1 h in series [10] of 6300 ng/mL. Besides, the ED50 in series [12] worked out at 0.22 mg/kg.

(Values after patent publication US4645769A, “1-oxa-1-dethia-cephalosporin compounds and antibacterial agent comprising the same” (Merck & Co., Inc., priority 1985, dated 1987).)
